# From ChEMBL document CHEMBL1157887, “4-Substituted 4-(1H-1,2,3-triazol-1-yl)piperidine: novel C7 moieties of fluoroquinolones as antibacterial agents” (2010)
# Tests used:
# Format in all cases: functional
# Pseudomonas aeruginosa [1] = assay: Antibacterial activity against Pseudomonas aeruginosa by broth microdilution technique
# Enterococcus faecalis = assay: Antibacterial activity against Enterococcus faecalis ATCC 29212 by broth microdilution technique
# Escherichia coli = assay: Antibacterial activity against Escherichia coli by broth microdilution technique
# Staphylococcus aureus [2] = assay: Antibacterial activity against multidrug resistant Staphylococcus aureus clinical isolate by broth microdilution technique
# [3] = tested on: Staphylococcus epidermidis; assay: Antibacterial activity against Staphylococcus epidermidis ATCC 12228 by broth microdilution technique
# Staphylococcus aureus [4] = assay: Antibacterial activity against Staphylococcus aureus ATCC 25923 by broth microdilution technique
# Pseudomonas aeruginosa [5] = assay: Antibacterial activity against multidrug resistant Pseudomonas aeruginosa clinical isolate by broth microdilution technique
# [6] = tested on: Staphylococcus epidermidis; assay: Selectivity ratio of MIC of ciprofloxacin to MIC of compound for Staphylococcus epidermidis ATCC 12228
Compound,MIC (Pseudomonas aeruginosa [1]),MIC (Enterococcus faecalis),MIC (Escherichia coli),MIC (Staphylococcus aureus [2]),MIC [3],MIC (Staphylococcus aureus [4]),MIC (Pseudomonas aeruginosa [5]),Ratio [6]
O=C(O)c1cn(C2CC2)c2nc(N3CCC(n4cc(-c5ccccc5)nn4)CC3)c(F)cc2c1=O,> 32 µg/mL,1 µg/mL,32 µg/mL,0.5 µg/mL,0.5 µg/mL,0.5 µg/mL,,
O=C(O)c1cn(C2CC2)c2nc(N3CCC(n4cc(/C=N/O)nn4)CC3)c(F)cc2c1=O,32 µg/mL,4 µg/mL,2 µg/mL,> 32 µg/mL,1 µg/mL,1 µg/mL,32 µg/mL,
O=C(O)c1cn(C2CC2)c2nc(N3CCC(n4cc(CO)nn4)CC3)c(F)cc2c1=O,32 µg/mL,2 µg/mL,0.5 µg/mL,> 32 µg/mL,0.5 µg/mL,0.125 µg/mL,32 µg/mL,
NCc1cn(C2CCN(c3nc4c(cc3F)c(=O)c(C(=O)O)cn4C3CC3)CC2)nn1,32 µg/mL,> 32 µg/mL,16 µg/mL,> 32 µg/mL,32 µg/mL,16 µg/mL,32 µg/mL,
COC(=O)c1cn(C2CCN(c3nc4c(cc3F)c(=O)c(C(=O)O)cn4C3CC3)CC2)nn1,32 µg/mL,16 µg/mL,1 µg/mL,> 32 µg/mL,1 µg/mL,1 µg/mL,32 µg/mL,
NC(=O)c1cn(C2CCN(c3nc4c(cc3F)c(=O)c(C(=O)O)cn4C3CC3)CC2)nn1,32 µg/mL,4 µg/mL,4 µg/mL,> 32 µg/mL,2 µg/mL,1 µg/mL,32 µg/mL,
O=C(O)c1cn(C2CC2)c2nc(N3CCC(n4cc(/C=N/OCc5ccccc5)nn4)CC3)c(F)cc2c1=O,32 µg/mL,4 µg/mL,8 µg/mL,4 µg/mL,1 µg/mL,1 µg/mL,32 µg/mL,
O=Cc1cn(C2CCN(c3nc4c(cc3F)c(=O)c(C(=O)O)cn4C3CC3)CC2)nn1,16 µg/mL,2 µg/mL,0.25 µg/mL,> 32 µg/mL,0.031 µg/mL,0.125 µg/mL,32 µg/mL,16
CC(O)c1cn(C2CCN(c3nc4c(cc3F)c(=O)c(C(=O)O)cn4C3CC3)CC2)nn1 (stereo unspecified),32 µg/mL,8 µg/mL,1 µg/mL,> 32 µg/mL,2 µg/mL,2 µg/mL,32 µg/mL,
CO/N=C/c1cn(C2CCN(c3nc4c(cc3F)c(=O)c(C(=O)O)cn4C3CC3)CC2)nn1,32 µg/mL,4 µg/mL,2 µg/mL,> 32 µg/mL,0.5 µg/mL,0.25 µg/mL,32 µg/mL,
CCO/N=C/c1cn(C2CCN(c3nc4c(cc3F)c(=O)c(C(=O)O)cn4C3CC3)CC2)nn1,32 µg/mL,4 µg/mL,4 µg/mL,32 µg/mL,1 µg/mL,0.5 µg/mL,32 µg/mL,
C=CCO/N=C/c1cn(C2CCN(c3nc4c(cc3F)c(=O)c(C(=O)O)cn4C3CC3)CC2)nn1,32 µg/mL,8 µg/mL,4 µg/mL,8 µg/mL,2 µg/mL,0.5 µg/mL,32 µg/mL,
C#CCO/N=C/c1cn(C2CCN(c3nc4c(cc3F)c(=O)c(C(=O)O)cn4C3CC3)CC2)nn1,32 µg/mL,8 µg/mL,4 µg/mL,32 µg/mL,1 µg/mL,0.5 µg/mL,32 µg/mL,
CCC(O)c1cn(C2CCN(c3nc4c(cc3F)c(=O)c(C(=O)O)cn4C3CC3)CC2)nn1 (stereo unspecified),32 µg/mL,8 µg/mL,1 µg/mL,> 32 µg/mL,2 µg/mL,2 µg/mL,32 µg/mL,
O=C(O)c1cn(C2CC2)c2cc(N3CCNCC3)c(F)cc2c1=O [CIPROFLOXACIN],,1 µg/mL,,,0.5 µg/mL,,,
CN[C@H](CC(C)C)C(=O)N[C@H]1C(=O)N[C@@H](CC(N)=O)C(=O)N[C@H]2C(=O)N[C@H]3C(=O)N[C@H](C(=O)N[C@H](C(=O)O)c4cc(O)cc(O)c4-c4cc3ccc4O)[C@H](O)c3ccc(c(Cl)c3)Oc3cc2cc(c3O[C@@H]2O[C@H](CO)[C@@H](O)[C@H](O)[C@H]2O[C@H]2C[C@](C)(N)[C@H](O)[C@H](C)O2)Oc2ccc(cc2Cl)[C@H]1O [VANCOMYCIN],,0.5 µg/mL,,,,,,
